We go through 22 compounds from PMC3459870, “Hit-to-Lead Development of the Chamigrane Endoperoxide Merulin A for the Treatment of African Sleeping Sickness” (PLoS ONE, 2012).

The test system of assay [1] is Trypanosoma brucei brucei strain 427–221. Briefly: Trypanosome screening assay (CellTiter-Glo ATP bioluminescence, 48 h). The following applies: for IC50: Trypanosoma brucei. It is filed as cell-based. The procedure:
Trypanosoma brucei brucei strain 427–221 were grown at 37°C, 5% CO2 in HMI-9 medium containing 10% Fetal Bovine Serum, 10% Serum Plus (JRH Inc., Lenexa, KS,USA) and penicillin/streptomycin.
T.b.b. 427–221 were diluted to 2.10^4 per ml in complete HMI-9 medium and aliquoted in Greiner sterile 384-well flat white opaque culture plates using a WellMate cell dispenser from Matrix Tech. (Hudson, NH, USA). Test compounds were serially diluted in dimethyl sulfoxide (DMSO) and added to the assay plates with the robotic dispenser Biomek FXp liquid handler (Beckman Coulter). Thimerosal (2 µM final concentration) was added as a positive control and DMSO as a negative control (1% final concentration). Trypanosomes were incubated with compounds for 48 hours at 37°C with 5% CO2 before monitoring cell viability as previously described. Briefly, trypanosomes were lysed in the wells by adding 25 µL of CellTiter-GloTM (Promega). The lysed trypanosomes were placed on an orbital shaker at room temperature for 2 minutes. After lysis, the resulting ATP-bioluminescence was measured at room temperature using an Analyst HT plate reader (Molecular Devices). Percentage inhibition of parasite growth was calculated for each well as [1−(RLUx−RLU+)/(RLU−−RLU+)]*100 where RLUx, RLU+ and RLU− are respectively the Relative Light Units for each well, positive (thimerosal) and negative (DMSO) controls. A screening window coefficient, denoted Z′ factor, was used to evaluate the performance of the assay. The Z′ factor, calculated as 1−(3σc++3σc−)/(μc+−μc−) where σc+, σc−, μc+ and μc− are respectively the standard deviation and mean values of positive and negative controls, is reflective of the assay signal dynamic range and the data variation associated with signal measurement. IC50's were calculated using Prism (GraphPad).

The next assay has as its system T98-G cells. Put plainly: Glioblastoma toxicity screening assay (nuclei count by imaging, 17 h). The following applies: Homo sapiens, T98G; Figure 4. The class given is cell-based. The procedure: (§1) T98-G cells (ATTC number: CRL-1690) were plated at a density of 2,000 cells per well into two 384 well clear bottom plates (Costar 3712) in DMEM with 10% FBS. After 24 hours incubation at 37°C with 5% CO2 the cells were pinned with 200 nL of a two-fold serial dilution of merulin analogues. After 17 hours of treatment at 37°C in 5% CO2 the plates were fixed with 4% formaldehyde and washed with PBS (BioTek ELx405). After 10 minutes in PBS with 0.5% TritonX-100 each plate was washed and blocked with 2% Bovine Serum Albumin in PBS. Nuclei were stained with Hoechst 33342 then washed and placed in 40 µL of PBS with 0.1% sodium azide. Plates were imaged using the ImageXpress Micro epifluorescent scope (Molecular Devices). MetaXpress software was used to quantify total number of cells and IC50s were calculated using Prism (GraphPad).

The subject of a further assay is HeLa cells. Put plainly: HeLa toxicity screening assay (nuclei count by imaging, 17 h). Conditions: Homo sapiens, HeLa; Figure 4. The class given is cell-based, human. The procedure:
as §1, with “HeLa” for “T98-G”, “cells” for “cells (ATTC number: CRL-1690)”

The mark [2] stands for this setting: text and Figures 1, 3, bloodstream form, read-out: IC50 against T. brucei brucei.
The mark [3] stands for this setting: Figure 4, bloodstream form, read-out: T.b.b IC50.

Where two headings read alike, the source gives them in different places.

For `NCCCC(N)(C(=O)O)C(F)F` (stereo not shown) [Eflornithine, reference compound], the 50% inhibitory concentration (IC50) (usually the concentration that inhibits the measured activity by half) in assay [1] (Table 3, read-out: T.b.b IC50) stood at 59 µM.
As for `CC1(C)CCC(=O)C2(C)OOC3CC12CCC3(O)CO` (stereo not shown) [Merulin B (6), Merulin B], the IC50 in assay [1] (Table 3, read-out: T.b.b IC50) is 8 µM.
As to `CC1(C)C=CC(=O)[C@@]2(C)OO[C@@H]3C[C@]12CCC3(O)CO` (stereo partly shown) [Merulin C (7), Merulin C], in assay [1] (Table 3, read-out: T.b.b IC50), the IC50 is 0.8 µM.
Take `N=C(N)c1ccc(OCCCCCOc2ccc(C(=N)N)cc2)cc1` [Pentamidine, reference compound]: the IC50 in assay [1] (Table 3, read-out: T.b.b IC50) stood at 0.03 µM.
For `Cc1ccc(C(=O)Nc2ccc(S(=O)(=O)O)c3cc(S(=O)(=O)O)cc(S(=O)(=O)O)c23)cc1NC(=O)c1cccc(NC(=O)Nc2cccc(C(=O)Nc3cc(C(=O)Nc4ccc(S(=O)(=O)O)c5cc(S(=O)(=O)O)cc(S(=O)(=O)O)c45)ccc3C)c2)c1` [Suramin, reference compound], in assay [1] (Table 3, read-out: T.b.b IC50), the IC50 came to 0.007 µM.
`CC1(C)CC[C@@H](O)[C@@]2(C)OO[C@H]3C[C@@]12CC[C@H]3O` [compound 8, (3S,4R,6aS,10R,10aS)-7,7,10a-trimethyloctahydro-3H-3,6a-methanobenzo[c][1,2]dioxocine-4,10-diol]: the IC50 in assay [1] (setting [2]) is more than 50 µM.
As for `CC1(C)CCC(=O)[C@@](C)(O)[C@]12CC[C@@H](O)[C@@H](O)C2` [compound 9, (1S,6S,8S,9R)-1,8,9-trihydroxy-1,5,5-trimethylspiro[5.5]undecan-2-one], the IC50 in assay [1] (setting [2]) is more than 50 µM. Further, the “activity against T. brucei brucei in words” value in assay [1] (initial SAR series) is “complete loss of activity”.
For the compound `CC(=O)O[C@@H]1CC[C@@]23C[C@@H]1OO[C@]2(C)C(=O)CCC3(C)C` [compound 10, (3S,4R,6aS,10aS)-7,7,10a-trimethyl-10-oxooctahydro-3H-3,6a-methanobenzo[c][1,2]dioxocin-4-yl acetate], the half-maximal inhibitory concentration (IC50) in assay [1] (setting [2]) was 14 µM.
Turning to `CC(C)(C)C(=O)O[C@@H]1CC[C@@]23C[C@@H]1OO[C@]2(C)C(=O)CCC3(C)C` [compound 11, (3S,4R,6aS,10aS)-7,7,10a-trimethyl-10-oxooctahydro-3H-3,6a-methanobenzo[c][1,2]dioxocin-4-yl pivalate], the concentration for half-maximal inhibition (IC50) in assay [1] (setting [2]) amounted to 8 µM.
`CC1(C)CCC(=O)[C@@]2(C)OO[C@H]3C[C@@]12CC[C@H]3OC(=O)C1COc2ccccc2O1` (stereo partly drawn) [compound 12, (3S,4R,6aS,10aS)-7,7,10a-trimethyl-10-oxooctahydro-3H-3,6a-methanobenzo[c][1,2]dioxocin-4-yl 2,3-dihydrobenzo[b][1,4]dioxine-2-carboxylate]: the IC50 in assay [1] (Table 3, read-out: T.b.b IC50) was 0.06 µM; in the assay on T98-G cells it was more than 50 µM; in the assay with HeLa cells, more than 50 µM.
Turning to `CC1(C)CCC(=O)[C@@]2(C)OO[C@H]3C[C@@]12CC[C@H]3OC(=O)c1ccc2c(c1)OCCO2` [compound 13, (3S,4R,6aS,10aS)-7,7,10a-trimethyl-10-oxooctahydro-3H-3,6a-methanobenzo[c][1,2]dioxocin-4-yl 2,3-dihydrobenzo[b][1,4]dioxine-6-carboxylate], the IC50 in assay [1] (setting [3]) was 0.26 µM; in the assay with T98-G cells, more than 50 µM; in the assay with HeLa cells it was 28 µM.
As to `CC1(C)CCC(=O)[C@@]2(C)OO[C@H]3C[C@@]12CC[C@H]3OC(=O)c1cc2ccccc2oc1=O` [compound 14, (3S,4R,6aS,10aS)-7,7,10a-trimethyl-10-oxooctahydro-3H-3,6a-methanobenzo[c][1,2]dioxocin-4-yl 2-oxo-2H-chromene-3-carboxylate], the IC50 was 0.42 µM in assay [1] (setting [3]), more than 50 µM in the assay with T98-G cells and more than 50 µM with HeLa cells.
For the compound `CC1(C)CCC(=O)[C@@]2(C)OO[C@H]3C[C@@]12CC[C@H]3OC(=O)c1cccc(-c2ccccc2)c1` [compound 15, (3S,4R,6aS,10aS)-7,7,10a-trimethyl-10-oxooctahydro-3H-3,6a-methanobenzo[c][1,2]dioxocin-4-yl [1,1′-biphenyl]-3-carboxylate], the IC50 in assay [1] (setting [3]) is 0.24 µM; in the assay with T98-G cells it was more than 50 µM; in the assay with HeLa cells, more than 50 µM.
Regarding `CC1(C)CCC(=O)[C@@]2(C)OO[C@H]3C[C@@]12CC[C@H]3OC(=O)c1ccc(C2CCCCC2)cc1` [compound 16, (3S,4R,6aS,10aS)-7,7,10a-trimethyl-10-oxooctahydro-3H-3,6a-methanobenzo[c][1,2]dioxocin-4-yl 4-cyclohexylbenzoate], the results for the half-inhibitory concentration (IC50) (in assay [1] (setting [3]); in the assay on T98-G cells; in the assay with HeLa cells) were 0.11 µM, more than 50 µM and 13 µM, respectively.
Consider `CC1(C)CCC(=O)[C@@]2(C)OO[C@H]3C[C@@]12CC[C@H]3OC(=O)Cc1cccc2ccccc12` [compound 17, (3S,4R,6aS,10aS)-7,7,10a-trimethyl-10-oxooctahydro-3H-3,6a-methanobenzo[c][1,2]dioxocin-4-yl 2-(naphthalen-1-yl)acetate], for which the IC50 is 0.043 µM in assay [1] (bloodstream form, read-out: IC50 against T. brucei); more than 50 µM in the assay on T98-G cells; 13 µM in the assay with HeLa cells.
In the case of `Cc1ncc(C(=O)O[C@@H]2CC[C@@]34C[C@@H]2OO[C@]3(C)C(=O)CCC4(C)C)s1` [compound 18, (3S,4R,6aS,10aS)-7,7,10a-trimethyl-10-oxooctahydro-3H-3,6a-methanobenzo[c][1,2]dioxocin-4-yl 2-methylthiazole-5-carboxylate], the IC50 in assay [1] (setting [3]) is 0.7 µM; with T98-G cells it was more than 50 µM; in the assay with HeLa cells, more than 50 µM.
With `CC1(C)CCC(=O)[C@@]2(C)OO[C@H]3C[C@@]12CC[C@H]3OC(=O)c1cnc(Br)s1` [compound 19, (3S,4R,6aS,10aS)-7,7,10a-trimethyl-10-oxooctahydro-3H-3,6a-methanobenzo[c][1,2]dioxocin-4-yl 2-bromothiazole-5-carboxylate], the IC50 in assay [1] (setting [3]) was 0.66 µM; in the assay on T98-G cells, more than 50 µM; with HeLa cells it was 13 µM.
Turning to `CC1(C)CCC(=O)[C@@]2(C)OO[C@H]3C[C@@]12CC[C@H]3OC(=O)c1ccsc1` [compound 20, (3S,4R,6aS,10aS)-7,7,10a-trimethyl-10-oxooctahydro-3H-3,6a-methanobenzo[c][1,2]dioxocin-4-yl thiophene-3-carboxylate], the IC50 was 0.33 µM in assay [1] (setting [3]), more than 50 µM in the assay with T98-G cells and 16 µM with HeLa cells.
With `CC1(C)CCC(=O)[C@@]2(C)OO[C@H]3C[C@@]12CC[C@H]3OC(=O)c1cc(Cl)sc1Cl` [compound 21, (3S,4R,6aS,10aS)-7,7,10a-trimethyl-10-oxooctahydro-3H-3,6a-methanobenzo[c][1,2]dioxocin-4-yl 2,5-dichlorothiophene-3-carboxylate], the IC50 is 0.54 µM in assay [1] (setting [3]), more than 50 µM with T98-G cells and 21 µM in the assay on HeLa cells.
The matching figures for `CC1(C)CCC(=O)[C@@]2(C)OO[C@H]3C[C@@]12CC[C@H]3OC(=O)c1cc(-c2ccccc2)no1` [compound 22, (3S,4R,6aS,10aS)-7,7,10a-trimethyl-10-oxooctahydro-3H-3,6a-methanobenzo[c][1,2]dioxocin-4-yl 3-phenylisoxazole-5-carboxylate]: 0.19 µM, 20 µM and more than 50 µM.
`CC1(C)CCC(=O)[C@@]2(C)OO[C@H]3C[C@@]12CC[C@H]3OC(=O)c1ccno1` [compound 23, (3S,4R,6aS,10aS)-7,7,10a-trimethyl-10-oxooctahydro-3H-3,6a-methanobenzo[c][1,2]dioxocin-4-yl isoxazole-5-carboxylate]: the IC50 in assay [1] (setting [3]) is 1.8 µM; in the assay on T98-G cells it was more than 50 µM; with HeLa cells, more than 50 µM.
With `CC1(C)CCC(=O)[C@@]2(C)OO[C@H]3C[C@@]12CC[C@H]3OC(=O)c1ccc(N2CCOCC2)cc1` [compound 24, (3S,4R,6aS,10aS)-7,7,10a-trimethyl-10-oxooctahydro-3H-3,6a-methanobenzo[c][1,2]dioxocin-4-yl 4-morpholinobenzoate], the IC50 in assay [1] (setting [3]) is 0.27 µM; with T98-G cells, more than 50 µM; in the assay on HeLa cells, 12 µM.
